Laboratory results taken from PubChem BioAssay (NCI).
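Grown in 96-well plates, cells were treated for 48 hours with each compound at five concentrations. Insufficient inhibition: endpoint recorded as highest concentration tested. GI50 = concentration required for 50% inhibition of growth. The concentration for full growth arrest is given as TGI.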

Experiments:
Test in all cases: NCI anticancer screen, dose series, 48 h
786-0 renal = system: 786-0 renal
A498 renal = system: A498 renal
A549 NSCLC = system: A549 NSCLC
ACHN renal = system: ACHN renal
BT-549 breast = system: BT-549 breast
CAKI-1 renal = system: CAKI-1 renal
CCRF-CEM leukemia = system: CCRF-CEM leukemia
COLO 205 colon = system: COLO 205 colon
DU-145 prostate = system: DU-145 prostate
EKVX NSCLC = system: EKVX NSCLC
HCT-116 colon = system: HCT-116 colon
HCT-15 colon = system: HCT-15 colon
HL-60(TB) leukemia = system: HL-60(TB) leukemia
HOP-62 NSCLC = system: HOP-62 NSCLC
HOP-92 NSCLC = system: HOP-92 NSCLC
HS 578T breast = system: HS 578T breast
IGROV1 ovarian = system: IGROV1 ovarian
K-562 leukemia = system: K-562 leukemia
KM12 colon = system: KM12 colon
LOX IMVI melanoma = system: LOX IMVI melanoma
M14 melanoma = system: M14 melanoma
MCF7 breast = system: MCF7 breast
MDA-MB-231 breast = system: MDA-MB-231 breast
MDA-MB-435 = system: MDA-MB-435
MOLT-4 leukemia = system: MOLT-4 leukemia
NCI-H460 lung = system: NCI-H460 lung
NCI-H522 lung = system: NCI-H522 lung
OVCAR-3 ovarian = system: OVCAR-3 ovarian
OVCAR-8 ovarian = system: OVCAR-8 ovarian
PC-3 prostate = system: PC-3 prostate
RPMI-8226 leukemia = system: RPMI-8226 leukemia
RXF 393 renal = system: RXF 393 renal
SF-268 CNS = system: SF-268 CNS
SF-295 CNS = system: SF-295 CNS
SF-539 CNS = system: SF-539 CNS
SK-MEL-2 melanoma = system: SK-MEL-2 melanoma
SK-MEL-28 melanoma = system: SK-MEL-28 melanoma
SK-MEL-5 melanoma = system: SK-MEL-5 melanoma
SK-OV-3 ovarian = system: SK-OV-3 ovarian
SN12C renal = system: SN12C renal
SNB-19 CNS = system: SNB-19 CNS
SNB-75 CNS = system: SNB-75 CNS
SR leukemia = system: SR leukemia
SW-620 colon = system: SW-620 colon
T-47D breast = system: T-47D breast
TK-10 renal = system: TK-10 renal
U251 CNS = system: U251 CNS
UACC-257 melanoma = system: UACC-257 melanoma
UACC-62 melanoma = system: UACC-62 melanoma
UO-31 renal = system: UO-31 renal

## CC1=C(C(=O)Nc2ccc(F)c(Cl)c2)C(c2cccc(Cl)c2)NC(=S)N1 (stereo not given)
786-0 renal
  GI50: 1.85 µM
  TGI: 8.4 µM
A498 renal
  GI50: 7.3 µM
  TGI: 15.7 µM
A549 NSCLC
  GI50: 12.7 µM
  TGI: 41.9 µM
ACHN renal
  GI50: 3.61 µM
  TGI: 14.4 µM
BT-549 breast
  GI50: 10.4 µM
  TGI: 28.1 µM
CAKI-1 renal
  GI50: > 50 µM
  TGI: > 50 µM
CCRF-CEM leukemia
  GI50: 36.7 µM
  TGI: > 50 µM
COLO 205 colon
  GI50: 4.22 µM
  TGI: > 50 µM
DU-145 prostate
  GI50: 17.3 µM
  TGI: > 50 µM
EKVX NSCLC
  GI50: 14.6 µM
  TGI: 38.6 µM
HCT-116 colon
  GI50: 2.3 µM
  TGI: 11.3 µM
HCT-15 colon
  GI50: 10.2 µM
  TGI: > 50 µM
HL-60(TB) leukemia
  GI50: 16.3 µM
  TGI: > 50 µM
HOP-62 NSCLC
  GI50: 7.83 µM
  TGI: 18.9 µM
HOP-92 NSCLC
  GI50: 32.1 µM
  TGI: > 50 µM
HS 578T breast
  GI50: 26.4 µM
  TGI: > 50 µM
IGROV1 ovarian
  GI50: 10.3 µM
  TGI: 39.2 µM
K-562 leukemia
  GI50: 13.6 µM
  TGI: 28.8 µM
KM12 colon
  GI50: 1.34 µM
  TGI: 12.6 µM
LOX IMVI melanoma
  GI50: 1.44 µM
  TGI: 6.76 µM
M14 melanoma
  GI50: 9.02 µM
  TGI: 23.4 µM
MCF7 breast
  GI50: 47.6 µM
  TGI: > 50 µM
MDA-MB-231 breast
  GI50: 7.36 µM
  TGI: 17.4 µM
MDA-MB-435
  GI50: 11.1 µM
  TGI: 32.4 µM
MOLT-4 leukemia
  GI50: 45.1 µM
  TGI: > 50 µM
NCI-H460 lung
  GI50: 23.9 µM
  TGI: > 50 µM
NCI-H522 lung
  GI50: 2.13 µM
  TGI: 17.3 µM
OVCAR-3 ovarian
  GI50: 13.9 µM
  TGI: 33.6 µM
OVCAR-8 ovarian
  GI50: 17.1 µM
  TGI: > 50 µM
PC-3 prostate
  GI50: 16.1 µM
  TGI: > 50 µM
RPMI-8226 leukemia
  GI50: 15.3 µM
  TGI: > 50 µM
RXF 393 renal
  GI50: 1.1 µM
  TGI: 3.24 µM
SF-268 CNS
  GI50: 10.1 µM
  TGI: 25.9 µM
SF-295 CNS
  GI50: 6.28 µM
  TGI: > 50 µM
SF-539 CNS
  GI50: > 50 µM
  TGI: > 50 µM
SK-MEL-2 melanoma
  GI50: 8.4 µM
  TGI: 20.5 µM
SK-MEL-28 melanoma
  GI50: 10.2 µM
  TGI: 28 µM
SK-MEL-5 melanoma
  GI50: 10 µM
  TGI: 20.2 µM
SK-OV-3 ovarian
  GI50: 5.26 µM
  TGI: 26.6 µM
SN12C renal
  GI50: 0.00746 µM
  TGI: 2.51 µM
SNB-19 CNS
  GI50: 26.7 µM
  TGI: > 50 µM
SNB-75 CNS
  GI50: 6.36 µM
  TGI: 21 µM
SR leukemia
  GI50: 15.4 µM
  TGI: 47.8 µM
SW-620 colon
  GI50: > 50 µM
  TGI: > 50 µM
T-47D breast
  GI50: 42.5 µM
  TGI: > 50 µM
TK-10 renal
  GI50: 9.01 µM
  TGI: 45.5 µM
U251 CNS
  GI50: 6.84 µM
  TGI: 18.8 µM
UACC-257 melanoma
  GI50: 10.1 µM
  TGI: 23.5 µM
UACC-62 melanoma
  GI50: 3.93 µM
  TGI: 12.5 µM
UO-31 renal
  GI50: 3.67 µM
  TGI: 14.6 µM
